# Reference: US9695155B2, “Herbicidal substituted pyrimidinyloxy benzene compounds” (E. I. DU PONT DE NEMOURS AND COMPANY, priority 2013, dated 2017)
# How the values were obtained:
# windgrass [1] = assay: Test D preemergence; assay type: in vivo, Apera spica-venti; conditions: Apera spica-venti, pre-emergence
# Procedure, shortened: (§1)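 Greenhouse herbicide screen. Sowing into silt loam for preemergence application; foliar application to 2–18 cm seedlings in potting mix for postemergence. 0–100 visual control rating after 7–21 d.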
# bluegrass = assay: Test D postemergence; assay type: in vivo, Poa annua; conditions: Poa annua, post-emergence, Postemergence, scale 0 to 100 (0 no effect, 100 complete control), read-out: Plant response rating, Bluegrass
# Procedure, shortened: as §1
# winter wheat = assay: Test D postemergence; assay type: in vivo, Triticum aestivum; conditions: Triticum aestivum, post-emergence
# Procedure, shortened: as §1
# spring wheat = assay: Test D postemergence; assay type: in vivo, Triticum aestivum; conditions: Triticum aestivum, post-emergence
# Procedure, shortened: as §1
# field poppy = assay: Test D preemergence; assay type: in vivo, Papaver rhoeas; conditions: Papaver rhoeas, pre-emergence, scale 0-100, read-out: Plant response rating, Field Poppy
# Procedure, shortened: as §1
# chickweed = assay: Test D preemergence; assay type: in vivo, Stellaria media; conditions: Stellaria media, pre-emergence, scale 0-100, read-out: Plant response rating, Chickweed
# Procedure, shortened: as §1
# windgrass [2] = assay: Test D postemergence; assay type: in vivo, Apera spica-venti; conditions: Apera spica-venti, post-emergence
# Procedure, shortened: as §1
# wild buckwheat = assay: Test D postemergence; assay type: in vivo, Polygonum convolvulus; conditions: Fallopia convolvulus, post-emergence, Postemergence, scale 0 to 100 (0 no effect, 100 complete control), read-out: Plant response rating, Buckwheat, Wild
# Procedure, shortened: as §1
# blackgrass = assay: Test D postemergence; assay type: in vivo, Alopecurus myosuroides; conditions: Alopecurus myosuroides, post-emergence, Postemergence, scale 0 to 100 (0 no effect, 100 complete control), read-out: Plant response rating, Blackgrass
# Procedure, shortened: as §1
# Italian ryegrass [3] = assay: Test D preemergence; assay type: in vivo, Lolium multiflorum; conditions: Lolium multiflorum, pre-emergence
# Procedure, shortened: as §1
# wild oat = assay: Test D preemergence; assay type: in vivo, Avena fatua; conditions: Avena fatua, pre-emergence
# Procedure, shortened: as §1
# Italian ryegrass [4] = assay: Test D postemergence; assay type: in vivo, Lolium multiflorum; conditions: Lolium multiflorum, post-emergence
# Procedure, shortened: as §1
smiles,measurement,setting,value
"FC(F)(F)c1cnn(-c2ccccc2Oc2ncc(Br)cn2)c1 [Compound 18, 5-bromo-2-[2-[4-(trifluoromethyl)-1H-pyrazol-1-yl]phenoxy]pyrimidine]",pest or weed control at 16 g/ha,"windgrass [1]; 16 g ai/ha, scale 0 (no effect) to 100 (complete control), read-out: Plant response rating, Windgrass",5%
same,pest or weed control at 31 g/ha,"windgrass [1]; 31 g ai/ha, scale 0 (no effect) to 100 (complete control), read-out: Plant response rating, Windgrass",20%
same,pest or weed control at 62 g/ha,"windgrass [1]; 62 g ai/ha, scale 0-100, read-out: Plant response rating, Windgrass",75%
same,pest or weed control at 125 g/ha,"windgrass [1]; 125 g ai/ha, scale 0-100, read-out: Plant response rating, Windgrass",100%
same,pest or weed control at 250 g/ha,"windgrass [1]; 250 g ai/ha, scale 0-100, read-out: Plant response rating, Windgrass",100%
same,pest or weed control at 16 g/ha,bluegrass; 16 g ai/ha,15%
same,pest or weed control at 31 g/ha,bluegrass; 31 g ai/ha,25%
same,pest or weed control at 62 g/ha,bluegrass; 62 g ai/ha,30%
same,pest or weed control at 125 g/ha,bluegrass; 125 g ai/ha,40%
same,pest or weed control at 250 g/ha,bluegrass; 250 g ai/ha,40%
same,plant injury at 16 g/ha,"winter wheat; 16 g ai/ha, scale 0-100, read-out: Plant response rating, Wheat, Winter",5%
same,plant injury at 31 g/ha,"winter wheat; 31 g ai/ha, scale 0 to 100 (0 no effect, 100 complete control), read-out: Plant response rating, Wheat, Winter",5%
same,plant injury at 62 g/ha,"winter wheat; 62 g ai/ha, scale 0 to 100 (0 no effect, 100 complete control), read-out: Plant response rating, Wheat, Winter",10%
same,plant injury at 125 g/ha,"winter wheat; 125 g ai/ha, scale 0 to 100 (0 no effect, 100 complete control), read-out: Plant response rating, Wheat, Winter",15%
same,plant injury at 250 g/ha,"winter wheat; 250 g ai/ha, scale 0 to 100 (0 no effect, 100 complete control), read-out: Plant response rating, Wheat, Winter",20%
same,plant injury at 16 g/ha,"spring wheat; 16 g ai/ha, scale 0-100, read-out: Plant response rating, Wheat, Spring",10%
same,plant injury at 31 g/ha,"spring wheat; 31 g ai/ha, scale 0 to 100 (0 no effect, 100 complete control), read-out: Plant response rating, Wheat, Spring",10%
same,plant injury at 62 g/ha,"spring wheat; 62 g ai/ha, scale 0 to 100 (0 no effect, 100 complete control), read-out: Plant response rating, Wheat, Spring",15%
same,plant injury at 125 g/ha,"spring wheat; 125 g ai/ha, scale 0 to 100 (0 no effect, 100 complete control), read-out: Plant response rating, Wheat, Spring",20%
same,plant injury at 250 g/ha,"spring wheat; 250 g ai/ha, scale 0 to 100 (0 no effect, 100 complete control), read-out: Plant response rating, Wheat, Spring",25%
same,pest or weed control at 31 g/ha,field poppy; 31 g ai/ha,70%
same,pest or weed control at 62 g/ha,field poppy; 62 g ai/ha,85%
same,pest or weed control at 125 g/ha,field poppy; 125 g ai/ha,95%
same,pest or weed control at 250 g/ha,field poppy; 250 g ai/ha,100%
same,pest or weed control at 125 g/ha,chickweed; 125 g ai/ha,90%
same,pest or weed control at 250 g/ha,chickweed; 250 g ai/ha,100%
same,pest or weed control at 16 g/ha,"windgrass [2]; 16 g ai/ha, scale 0-100, read-out: Plant response rating, Windgrass",5%
same,pest or weed control at 31 g/ha,"windgrass [2]; 31 g ai/ha, scale 0 to 100 (0 no effect, 100 complete control), read-out: Plant response rating, Windgrass",10%
same,pest or weed control at 62 g/ha,"windgrass [2]; 62 g ai/ha, scale 0 to 100 (0 no effect, 100 complete control), read-out: Plant response rating, Windgrass",10%
same,pest or weed control at 125 g/ha,"windgrass [2]; 125 g ai/ha, scale 0 to 100 (0 no effect, 100 complete control), read-out: Plant response rating, Windgrass",10%
same,pest or weed control at 250 g/ha,"windgrass [2]; 250 g ai/ha, scale 0 to 100 (0 no effect, 100 complete control), read-out: Plant response rating, Windgrass",10%
same,pest or weed control at 16 g/ha,wild buckwheat; 16 g ai/ha,60%
same,pest or weed control at 31 g/ha,wild buckwheat; 31 g ai/ha,55%
same,pest or weed control at 62 g/ha,wild buckwheat; 62 g ai/ha,70%
same,pest or weed control at 125 g/ha,wild buckwheat; 125 g ai/ha,100%
same,pest or weed control at 250 g/ha,wild buckwheat; 250 g ai/ha,95%
same,pest or weed control at 62 g/ha,blackgrass; 62 g ai/ha,15%
same,pest or weed control at 16 g/ha,blackgrass; 16 g ai/ha,10%
same,pest or weed control at 31 g/ha,blackgrass; 31 g ai/ha,15%
same,pest or weed control at 125 g/ha,blackgrass; 125 g ai/ha,20%
same,pest or weed control at 250 g/ha,blackgrass; 250 g ai/ha,35%
same,pest or weed control at 16 g/ha,"Italian ryegrass [3]; 16 g ai/ha, scale 0 (no effect) to 100 (complete control), read-out: Plant response rating, Ryegrass, Italian",10%
same,pest or weed control at 31 g/ha,"Italian ryegrass [3]; 31 g ai/ha, scale 0 (no effect) to 100 (complete control), read-out: Plant response rating, Ryegrass, Italian",10%
same,pest or weed control at 62 g/ha,"Italian ryegrass [3]; 62 g ai/ha, scale 0-100, read-out: Plant response rating, Ryegrass, Italian",20%
same,pest or weed control at 125 g/ha,"Italian ryegrass [3]; 125 g ai/ha, scale 0-100, read-out: Plant response rating, Ryegrass, Italian",25%
same,pest or weed control at 250 g/ha,"Italian ryegrass [3]; 250 g ai/ha, scale 0-100, read-out: Plant response rating, Ryegrass, Italian",50%
same,pest or weed control at 16 g/ha,"wild oat; 16 g ai/ha, scale 0 (no effect) to 100 (complete control), read-out: Plant response rating, Oat, Wild",0%
same,pest or weed control at 31 g/ha,"wild oat; 31 g ai/ha, scale 0-100, read-out: Plant response rating, Oat, Wild",0%
same,pest or weed control at 62 g/ha,"wild oat; 62 g ai/ha, scale 0-100, read-out: Plant response rating, Oat, Wild",0%
same,pest or weed control at 125 g/ha,"wild oat; 125 g ai/ha, scale 0-100, read-out: Plant response rating, Oat, Wild",5%
same,pest or weed control at 250 g/ha,"wild oat; 250 g ai/ha, scale 0-100, read-out: Plant response rating, Oat, Wild",30%
same,pest or weed control at 16 g/ha,"Italian ryegrass [4]; 16 g ai/ha, scale 0-100, read-out: Plant response rating, Ryegrass, Italian",5%
same,pest or weed control at 31 g/ha,"Italian ryegrass [4]; 31 g ai/ha, scale 0 to 100 (0 no effect, 100 complete control), read-out: Plant response rating, Ryegrass, Italian",5%
same,pest or weed control at 62 g/ha,"Italian ryegrass [4]; 62 g ai/ha, scale 0 to 100 (0 no effect, 100 complete control), read-out: Plant response rating, Ryegrass, Italian",5%
same,pest or weed control at 125 g/ha,"Italian ryegrass [4]; 125 g ai/ha, scale 0 to 100 (0 no effect, 100 complete control), read-out: Plant response rating, Ryegrass, Italian",10%
same,pest or weed control at 250 g/ha,"Italian ryegrass [4]; 250 g ai/ha, scale 0 to 100 (0 no effect, 100 complete control), read-out: Plant response rating, Ryegrass, Italian",15%
